This test deals with recombinant NL4-3 virus (Renilla luciferase in nef, Gag P373S). The experiment in a line: HIV cell culture assay (luciferase activity in MT-2 cells infected with NLRluc recombinant virus). It counts as cell-based. A digest of the protocol: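 MT-2 cells in RPMI/10% FBS were infected with recombinant NL4-3 (NLRluc), produced by 293T transfection and titered in MT-2 by luciferase. Serial inhibitor dilutions were present throughout a 4–5 day infection. Antiviral activity was quantified as Renilla luciferase signal via a modified Dual Luciferase read.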

Setting [1] is: NL43, MT-2 cells infected 4-5 days with NLRluc recombinant virus, class symbol.

Among the data in patent US8748415B2 (priority 2011, dated 2014) are EC50 values, retold here.

Each structure is given as a SMILES string.

Consider `C=C(C)[C@@H]1CC[C@]2(CNCCC(=O)N3CC(F)(F)C(F)(F)C3)CC[C@]3(C)[C@H](CC[C@@H]4[C@@]5(C)CC=C(c6ccc(C(=O)O)cc6)C(C)(C)[C@@H]5CC[C@]43C)[C@@H]12` [Example 106, 4-((1R,3aS,5aR,5bR,7aR,11aS,11bR,13aR,13bR)-5a,5b,8,8,11a-pentamethyl-3a-((3-oxo-3-(3,3,4,4-tetrafluoropyrrolidin-1-yl)propylamino)methyl)-1-(prop-1-en-2-yl)-2,3,3a,4,5,5a,5b,6,7,7a,8,11,11a,11b,12,13,13a,13b-octadecahydro-1H-cyclopenta[a]chrysen-9-yl)benzoic acid], for which the EC50 under setting [1] was under 0.1 µM. With `C=C(C)[C@@H]1CC[C@]2(CNCCCN3CCCC3=O)CC[C@]3(C)[C@H](CC[C@@H]4[C@@]5(C)CC=C(c6ccc(C(=O)O)c(F)c6)C(C)(C)[C@@H]5CC[C@]43C)[C@@H]12` [Example 88, 2-fluoro-4-((1R,3aS,5aR,5bR,7aR,11aS,11bR,13aR,13bR)-5a,5b,8,8,11a-pentamethyl-3a-((3-(2-oxopyrrolidin-1-yl)propylamino)methyl)-1-(prop-1-en-2-yl)-2,3,3a,4,5,5a,5b,6,7,7a,8,11,11a,11b,12,13,13a,13b-octadecahydro-1H-cyclopenta[a]chrysen-9-yl)benzoic acid], the EC50 under setting [1] was under 0.1 µM. Turning to `C=C(C)[C@@H]1CC[C@]2(CNC(=O)NCCCN3CCCC3=O)CC[C@]3(C)[C@H](CC[C@@H]4[C@@]5(C)CC=C(c6ccc(C(=O)O)cc6)C(C)(C)[C@@H]5CC[C@]43C)[C@@H]12` [Example 155, 4-((1R,3aS,5aR,5bR,7aR,11aS,11bR,13aR,13bR)-5a,5b,8,8,11a-pentamethyl-3a-((3-(3-(2-oxopyrrolidin-1-yl)propyl)ureido)methyl)-1-(prop-1-en-2-yl)-2,3,3a,4,5,5a,5b,6,7,7a,8,11,11a,11b,12,13,13a,13b-octadecahydro-1H-cyclopenta[a]chrysen-9-yl)benzoic acid], under setting [1], the EC50 was under 0.1 µM. As to `C=C(C)[C@@H]1CC[C@]2(CNCCc3ccccn3)CC[C@]3(C)[C@H](CC[C@@H]4[C@@]5(C)CC=C(c6ccc(C(=O)O)cc6)C(C)(C)[C@@H]5CC[C@]43C)[C@@H]12` [Example 5, 4-((1R,3aS,5aR,5bR,7aR,11aS,11bR,13aR,13bR)-5a,5b,8,8,11a-pentamethyl-1-(prop-1-en-2-yl)-3a-((2-(pyridin-2-yl)ethylamino)methyl)-2,3,3a,4,5,5a,5b,6,7,7a,8,11,11a,11b,12,13,13a,13b-octadecahydro-1H-cyclopenta[a]chrysen-9-yl)benzoic acid], the EC50 (NL43, MT-2 cells infected 4-5 days with NLRluc recombinant virus, numeric value) was 0.02 µM. For `C=C(C)[C@@H]1CC[C@]2(CN[C@@H](CC(=O)O)C(=O)N3CCS(=O)(=O)CC3)CC[C@]3(C)[C@H](CC[C@@H]4[C@@]5(C)CC=C(c6ccc(C(=O)O)cc6)C(C)(C)[C@@H]5CC[C@]43C)[C@@H]12` [Example 132, 4-thiomorpholinebutanoic acid, 4-((1R,3aS,5aR,5bR,7aR,11aS,11bR,13aR,13bR)-3a-((((1S)-1-(carboxymethyl)-2-(1,1-dioxido-4-thiomorpholinyl)-2-oxoethyl)amino)methyl)-1-isopropenyl-5a,5b,8,8,11a-pentamethyl-2,3,3a,4,5,5a,5b,6,7,7a,8,11,11a,11b,12,13,13a,13b-octadecahydro-1H-cyclopenta[a]chrysen-9-yl)benzoic acid], under setting [1], the EC50 was under 0.1 µM.

Regarding `C=C(C)[C@@H]1CC[C@]2(CNCCCNCCO)CC[C@]3(C)[C@H](CC[C@@H]4[C@@]5(C)CC=C(c6ccc(C(=O)O)cc6)C(C)(C)[C@@H]5CC[C@]43C)[C@@H]12` [Example 61, 4-((1R,3aS,5aR,5bR,7aR,11aS,11bR,13aR,13bR)-3a-((3-(2-hydroxyethylamino)propylamino)methyl)-5a,5b,8,8,11a-pentamethyl-1-(prop-1-en-2-yl)-2,3,3a,4,5,5a,5b,6,7,7a,8,11,11a,11b,12,13,13a,13b-octadecahydro-1H-cyclopenta[a]chrysen-9-yl)benzoic acid], the EC50 under setting [1] was under 0.1 µM.

As to `C=C(C)[C@@H]1CC[C@]2(CNCCC(=O)N(C)C)CC[C@]3(C)[C@H](CC[C@@H]4[C@@]5(C)CC=C(c6ccc(C(=O)O)cc6)C(C)(C)[C@@H]5CC[C@]43C)[C@@H]12` [Example 75, 4-((1R,3aS,5aR,5bR,7aR,11aS,11bR,13aR,13bR)-3a-((3-(dimethylamino)-3-oxopropylamino)methyl)-5a,5b,8,8,11a-pentamethyl-1-(prop-1-en-2-yl)-2,3,3a,4,5,5a,5b,6,7,7a,8,11,11a,11b,12,13,13a,13b-octadecahydro-1H-cyclopenta[a]chrysen-9-yl)benzoic acid], the EC50 under setting [1] is under 0.1 µM. Take `C=C(C)[C@@H]1CC[C@]2(CNCCCN3C(=O)CCC3=O)CC[C@]3(C)[C@H](CC[C@@H]4[C@@]5(C)CC=C(c6ccc(C(=O)O)cc6)C(C)(C)[C@@H]5CC[C@]43C)[C@@H]12` [Example 71, 4-((1R,3aS,5aR,5bR,7aR,11aS,11bR,13aR,13bR)-3a-((3-(2,5-dioxopyrrolidin-1-yl)propylamino)methyl)-5a,5b,8,8,11a-pentamethyl-1-(prop-1-en-2-yl)-2,3,3a,4,5,5a,5b,6,7,7a,8,11,11a,11b,12,13,13a,13b-octadecahydro-1H-cyclopenta[a]chrysen-9-yl)benzoic acid]: the EC50 under setting [1] is under 0.1 µM. As for `C=C(C)[C@@H]1CC[C@]2(CNC(=O)c3ccc(S(N)(=O)=O)cc3)CC[C@]3(C)[C@H](CC[C@@H]4[C@@]5(C)CC=C(c6ccc(C(=O)O)cc6)C(C)(C)[C@@H]5CC[C@]43C)[C@@H]12` [Example 144, 4-((1R,3aS,5aR,5bR,7aR,11aS,11bR,13aR,13bR)-5a,5b,8,8,11a-pentamethyl-1-(prop-1-en-2-yl)-3a((4-sulfamoylbenzamido)methyl)-2,3,3a,4,5,5a,5b,6,7,7a,8,11,11a,11b,12,13,13a,13b-octadecahydro-1H-cyclopenta[a]chrysen-9-yl)benzoic acid], under setting [1], the EC50 was under 0.1 µM. In the case of `C=C(C)[C@@H]1CC[C@]2(CNC(=O)[C@@H]3CCCN3)CC[C@]3(C)[C@H](CC[C@@H]4[C@@]5(C)CC=C(c6ccc(C(=O)O)cc6)C(C)(C)[C@@H]5CC[C@]43C)[C@@H]12` [Example 136, 4-((1R,3aS,5aR,5bR,7aR,11aS,11bR,13aR,13bR)-5a,5b,8,8,11a-pentamethyl-1-(prop-1-en-2-yl)-3a-(((S)-pyrrolidine-2-carboxamido)methyl)-2,3,3a,4,5,5a,5b,6,7,7a,8,11,11a,11b,12,13,13a,13b-octadecahydro-1H-cyclopenta[a]chrysen-9-yl)benzoic acid], the EC50 under setting [1] was under 0.1 µM.

For `C=C(C)[C@@H]1CC[C@]2(CN3CC3)CC[C@]3(C)[C@H](CC[C@@H]4[C@@]5(C)CC=C(c6ccc(C(=O)O)cc6)C(C)(C)[C@@H]5CC[C@]43C)[C@@H]12` [Example 177, 4-((1R,3aS,5aR,5bR,7aR,11aS,11bR,13aR,13bR)-3a-(aziridin-1-ylmethyl)-5a,5b,8,8,11a-pentamethyl-1-(prop-1-en-2-yl)-2,3,3a,4,5,5a,5b,6,7,7a,8,11,11a,11b,12,13,13a,13b-octadecahydro-1H-cyclopenta[a]chrysen-9-yl)benzoic acid], where the note is “NL43”, the EC50 was under 0.1 µM.

On to `C=C(C)[C@@H]1CC[C@]2(CNCCCN3CCS(=O)(=O)CC3)CC[C@]3(C)[C@H](CC[C@@H]4[C@@]5(C)CC=C(c6ccc(C(=O)NS(=O)(=O)C7CC7)cc6)C(C)(C)[C@@H]5CC[C@]43C)[C@@H]12` [Example 172, benzamide, N-(cyclopropylsulfonyl)-4-((1R,3aS,5aR,5bR,7aR,11aS,11bR,13aR,13bR)-3a-(((3-(1,1-dioxido-4-thiomorpholinyl)propyl)amino)methyl)-1-isopropenyl-5a,5b,8,8,11a-pentamethyl-2,3,3a,4,5,5a,5b,6,7,7a,8,11,11a,11b,12,13,13a,13b-octadecahydro-1H-cyclopenta[a]chrysen-9-yl)benzamide], for which the EC50 under setting [1] was under 0.1 µM. Consider `C=C(C)[C@@H]1CC[C@]2(CNCCC(=O)N3CCCC3)CC[C@]3(C)[C@H](CC[C@@H]4[C@@]5(C)CC=C(c6ccc(C(=O)O)c(F)c6)C(C)(C)[C@@H]5CC[C@]43C)[C@@H]12` [Example 90, 2-fluoro-4-((1R,3aS,5aR,5bR,7aR,11aS,11bR,13aR,13bR)-5a,5b,8,8,11a-pentamethyl-3a-((3-oxo-3-(pyrrolidin-1-yl)propylamino)methyl)-1-(prop-1-en-2-yl)-2,3,3a,4,5,5a,5b,6,7,7a,8,11,11a,11b,12,13,13a,13b-octadecahydro-1H-cyclopenta[a]chrysen-9-yl)benzoic acid], for which the EC50 under setting [1] was under 0.1 µM. Take `C=C(C)[C@@H]1CC[C@]2(CNCCN3CCCC3=O)CC[C@]3(C)[C@H](CC[C@@H]4[C@@]5(C)CC=C(c6ccc(C(=O)O)cc6)C(C)(C)[C@@H]5CC[C@]43C)[C@@H]12` [Example 34, 4-((1R,3aS,5aR,5bR,7aR,11aS,11bR,13aR,13bR)-5a,5b,8,8,11a-pentamethyl-3a-((2-(2-oxopyrrolidin-1-yl)ethylamino)methyl)-1-(prop-1-en-2-yl)-2,3,3a,4,5,5a,5b,6,7,7a,8,11,11a,11b,12,13,13a,13b-octadecahydro-1H-cyclopenta[a]chrysen-9-yl)benzoic acid]: under setting [1], the EC50 is under 0.1 µM. `C=C(C)[C@@H]1CC[C@]2(CNCCC(=O)NC)CC[C@]3(C)[C@H](CC[C@@H]4[C@@]5(C)CC=C(c6ccc(C(=O)O)cc6)C(C)(C)[C@@H]5CC[C@]43C)[C@@H]12` [Example 127, 4-((1R,3aS,5aR,5bR,7aR,11aS,11bR,13aR,13bR)-5a,5b,8,8,11a-pentamethyl-3a-((3-(methylamino)-3-oxopropylamino)methyl)-1-(prop-1-en-2-yl)-2,3,3a,4,5,5a,5b,6,7,7a,8,11,11a,11b,12,13,13a,13b-octadecahydro-1H-cyclopenta[a]chrysen-9-yl)benzoic acid]: the EC50 under setting [1] was under 0.1 µM.
